In brackets after ≈: the same amount, converted by molar mass.
Tests used:
[1] = tested on: Mycobacterium tuberculosis; assay: Antitubercular activity against Mycobacterium tuberculosis H37Ra; assay type: functional
[2] = tested on: Plasmodium falciparum; assay: Antimalarial activity against Plasmodium falciparum NF54; assay type: functional; conditions: NF-54

| Compound | MIC [1] | MIC [2] |
| --- | --- | --- |
| Oc1ccc(-c2cc(-c3ccccc3)nc(NCCCN3CCOCC3)n2)cc1 | 12.5 mg/L (≈ 32 µM) | 2 mg/L (≈ 5.12 µM) |
| Oc1ccc(-c2cc(-c3ccccc3)nc(N3CCOCC3)n2)cc1 | – | 2 mg/L (≈ 6 µM) |
| COc1ccc(OC)c(-c2cc(-c3ccc(O)cc3)nc(NCCCn3ccnc3)n2)c1 | 12.5 mg/L (≈ 29 µM) | 0.25 mg/L (≈ 0.579 µM) |
| CCN(CC)CCCC(C)Nc1nc(-c2ccc(O)cc2)cc(-c2ccc(OC)cc2)n1 (configuration not stated) | 12.5 mg/L (≈ 28.8 µM) | 10 mg/L (≈ 23 µM) |
| COc1ccc(OC)c(-c2cc(-c3ccc(O)cc3)nc(NCCCN3CCOCC3)n2)c1 | 25 mg/L (≈ 55.5 µM) | 0.5 mg/L (≈ 1.11 µM) |
| COc1ccc(-c2cc(-c3ccc(O)cc3)nc(N3CCOCC3)n2)cc1OC | – | 0.5 mg/L (≈ 1.27 µM) |
| CCN(CC)CCCC(C)Nc1nc(-c2ccc(C)cc2)cc(-c2ccc(O)cc2)n1 (configuration not stated) | – | 50 mg/L (≈ 119 µM) |
| COc1ccc(-c2cc(-c3ccc(O)cc3)nc(NCCCn3ccnc3)n2)cc1OC | 12.5 mg/L (≈ 29 µM) | 0.25 mg/L (≈ 0.579 µM) |
| COc1ccc(OC)c(-c2cc(-c3ccc(O)cc3)nc(N3CCOCC3)n2)c1 | – | 0.5 mg/L (≈ 1.27 µM) |
| Oc1ccc(-c2cc(-c3ccccc3)nc(NCCCn3ccnc3)n2)cc1 | 25 mg/L (≈ 67.3 µM) | 0.5 mg/L (≈ 1.35 µM) |
| Cc1ccc(-c2cc(-c3ccc(O)cc3)nc(N3CCOCC3)n2)cc1 | – | 2 mg/L (≈ 5.76 µM) |
| COc1ccc(-c2cc(-c3ccc(O)cc3)nc(NCCCN3CCOCC3)n2)cc1OC | 25 mg/L (≈ 55.5 µM) | 0.5 mg/L (≈ 1.11 µM) |
| CCN(CC)CCCC(C)Nc1nc(-c2ccc(O)cc2)cc(-c2cc(OC)ccc2OC)n1 (configuration not stated) | 12.5 mg/L (≈ 26.9 µM) | 10 mg/L (≈ 21.5 µM) |
| Cc1ccc(-c2cc(-c3ccc(O)cc3)nc(NCCCN3CCOCC3)n2)cc1 | – | 2 mg/L (≈ 4.94 µM) |
| Cc1ccc(-c2cc(-c3ccc(O)cc3)nc(NCCCn3ccnc3)n2)cc1 | – | 2 mg/L (≈ 5.19 µM) |
| COc1ccc(-c2cc(-c3ccc(O)cc3)nc(N3CCOCC3)n2)cc1 | – | 1 mg/L (≈ 2.75 µM) |
| COc1ccc(-c2cc(-c3ccc(O)cc3)nc(NCCCn3ccnc3)n2)cc1 | 12.5 mg/L (≈ 31.1 µM) | 1 mg/L (≈ 2.49 µM) |
| COc1ccc(-c2cc(-c3ccc(O)cc3)nc(NCCCN3CCOCC3)n2)cc1 | 12.5 mg/L (≈ 29.7 µM) | 1 mg/L (≈ 2.38 µM) |
| CCN(CC)CCCC(C)Nc1nc(-c2ccccc2)cc(-c2ccc(O)cc2)n1 (configuration not stated) | 25 mg/L (≈ 61.8 µM) | 10 mg/L (≈ 24.7 µM) |
| CCN(CC)CCCC(C)Nc1nc(-c2ccc(O)cc2)cc(-c2ccc(OC)c(OC)c2)n1 (configuration not stated) | 12.5 mg/L (≈ 26.9 µM) | 2 mg/L (≈ 4.3 µM) |

Source: ChEMBL document CHEMBL1141867, “A small library of trisubstituted pyrimidines as antimalarial and antitubercular agents” (2005)
